Patent US9035074B2, “Pyrrolo[2,3-D]pyrimidine derivatives” (Pfizer Inc., priority 2013, dated 2015)

biological target: JAK3 (Homo sapiens (Human), UniProt P52333); assay: JAK Caliper Enzyme Assay at 1 mM ATP (JAK3); format: biochemical
Sequence (P52333 whole entry, species assumed): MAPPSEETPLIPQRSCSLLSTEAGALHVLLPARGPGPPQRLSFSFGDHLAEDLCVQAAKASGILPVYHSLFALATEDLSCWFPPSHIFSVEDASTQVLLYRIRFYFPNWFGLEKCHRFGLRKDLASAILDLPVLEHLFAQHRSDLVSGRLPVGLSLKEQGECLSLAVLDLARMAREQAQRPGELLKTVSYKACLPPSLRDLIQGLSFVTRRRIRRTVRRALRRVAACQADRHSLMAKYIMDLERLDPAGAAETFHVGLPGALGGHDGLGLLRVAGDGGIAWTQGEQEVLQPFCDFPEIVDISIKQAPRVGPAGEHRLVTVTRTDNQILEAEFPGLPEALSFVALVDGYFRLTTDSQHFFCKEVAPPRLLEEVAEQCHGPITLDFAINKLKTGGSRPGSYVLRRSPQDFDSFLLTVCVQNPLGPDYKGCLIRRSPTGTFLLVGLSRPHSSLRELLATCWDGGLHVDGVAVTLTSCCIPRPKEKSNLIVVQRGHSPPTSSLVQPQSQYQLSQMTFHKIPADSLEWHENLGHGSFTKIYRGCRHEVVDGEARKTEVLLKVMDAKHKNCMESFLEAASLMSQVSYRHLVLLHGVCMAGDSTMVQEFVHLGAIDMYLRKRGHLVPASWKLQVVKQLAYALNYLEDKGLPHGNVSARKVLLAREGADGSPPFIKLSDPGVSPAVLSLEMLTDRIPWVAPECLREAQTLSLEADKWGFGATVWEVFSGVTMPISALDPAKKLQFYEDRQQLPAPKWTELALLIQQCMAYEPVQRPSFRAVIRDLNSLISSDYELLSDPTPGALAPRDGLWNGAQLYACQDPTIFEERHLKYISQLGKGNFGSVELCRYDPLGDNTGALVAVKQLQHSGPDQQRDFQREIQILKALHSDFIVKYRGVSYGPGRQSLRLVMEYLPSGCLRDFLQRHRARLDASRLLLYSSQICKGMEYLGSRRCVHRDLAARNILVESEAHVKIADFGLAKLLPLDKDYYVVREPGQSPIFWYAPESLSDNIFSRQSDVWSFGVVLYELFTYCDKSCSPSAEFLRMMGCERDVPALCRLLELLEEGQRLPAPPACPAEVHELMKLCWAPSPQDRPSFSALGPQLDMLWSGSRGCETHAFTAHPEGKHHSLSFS

IC50 [µM] | Structure (SMILES)
> 10 | CN(c1ncnc2[nH]ccc12)[C@H]1C[C@@H](NS(=O)(=O)N2CC[C@@H](C#N)C2)C1 (mixture of isomers) [Example 17A, (R)- and (S)-3-Cyano-N-{cis-3-[methyl(7H-pyrrolo[2,3-d]pyrimidin-4-yl)amino]cyclobutyl}pyrrolidine-1-sulfonamide]
> 10 | CN(c1ncnc2[nH]ccc12)[C@H]1C[C@@H](NS(=O)(=O)[C@H]2C[C@@H](CC#N)C2)C1 [Example 4A, cis-3-(cyanomethyl)-N-{cis-3-[methyl(7H-pyrrolo[2,3-d]pyrimidin-4-yl)amino]-cyclobutyl}cyclobutane-sulfonamide]
> 10 | CN(c1ncnc2[nH]ccc12)[C@H]1C[C@@H](NS(=O)(=O)[C@H]2C[C@H](CC#N)C2)C1 [Example 4B, trans-3-(cyanomethyl)-N-{cis-3-[methyl(7H-pyrrolo[2,3-d]pyrimidin-4-yl)amino]cyclobutyl}-cyclobutanesulfonamide]
> 10 | CN(c1ncnc2[nH]ccc12)[C@H]1C[C@@H](NS(=O)(=O)[C@H]2C[C@@](C)(CC#N)C2)C1 [Example 7A, cis-3-(cyanomethyl)-3-methyl-N-{cis-3-[methyl(7H-pyrrolo[2,3-d]pyrimidin-4-yl)amino]cyclobutyl}-cyclo-butanesulfonamide]
> 10 | CN(c1ncnc2[nH]ccc12)[C@H]1C[C@@H](NS(=O)(=O)[C@H]2C[C@](C)(CC#N)C2)C1 [Example 7B, trans-3-(cyanomethyl)-3-methyl-N-{cis-3-[methyl(7H-pyrrolo[2,3-d]pyrimidin-4-yl)amino]cyclobutyl}cyclo-butanesulfonamide]
> 10 | CN(c1ncnc2[nH]ccc12)[C@H]1C[C@@H](NS(=O)(=O)C2CN(C3CC3)C2)C1 [Example 15, 1-Cyclopropyl-N-{cis-3-[methyl(7H-pyrrolo[2,3-d]pyrimidin-4-yl)amino]cyclobutyl}azetidine-3-sulfonamide]
> 10 | CN(c1ncnc2[nH]ccc12)[C@H]1C[C@@H](CS(=O)(=O)N2CCC(F)(F)CC2)C1 [Example 25, N-(cis-3-{[(4,4-Difluoropiperidin-1-yl)sulfonyl]methyl}cyclobutyl)-N-methyl-7H-pyrrolo[2,3-d]pyrimidin-4-amine]
> 10 | CN(c1ncnc2[nH]ccc12)[C@H]1C[C@@H](CS(=O)(=O)CCC2CC2)C1 [Example 32, N-(cis-3-{[(2-Cyclopropylethyl)sulfonyl]methyl}cyclobutyl)-N-methyl-7H-pyrrolo[2,3-d]pyrimidin-4-amine]
> 10 | Cc1ncc(S(=O)(=O)N[C@H]2C[C@@H](N(C)c3ncnc4[nH]ccc34)C2)s1 [Example 38, 2-Methyl-N-{cis-3-[methyl(7H-pyrrolo[2,3-d]pyrimidin-4-yl)amino]cyclobutyl}-1,3-thiazole-5-sulfonamide]

Structure (SMILES) | IC50 [µM]
CN(c1ncnc2[nH]ccc12)[C@H]1C[C@@H](NS(=O)(=O)N2C[C@H]3C[C@@H](C2)O3)C1 [Example 19, N-{cis-3-[Methyl(7H-pyrrolo[2,3-d]pyrimidin-4-yl)amino]cyclobutyl}-6-oxa-3-azabicyclo[3.1.1]heptane-3-sulfonamide] | > 10
